# Laboratory results published in PubChem BioAssay (NCI).
# Several values for one entry are separate records, joined by “and”; a condition that tells them apart may be missing. Equal entries are not always repeated.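 Cultured in 96-well plates, cells were exposed to test compound for 48 hours across five concentrations. GI50: concentration for 50% inhibition of growth. TGI denotes the concentration required for complete inhibition of growth.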
# How the values were obtained:
# Assay in all cases: growth of human tumour cells (NCI), 48 h
# [1] = system: MALME-3M melanoma
# [2] = system: HCT-15 colon
# [3] = system: LOX IMVI melanoma
# [4] = system: MCF7 breast
# [5] = system: SW-620 colon
# [6] = system: SK-MEL-2 melanoma
# [7] = system: OVCAR-4 ovarian
# [8] = system: KM12 colon
# [9] = system: 786-0 renal
# [10] = system: EKVX NSCLC
SMILES,GI50 [1] [µM],TGI [1] [µM],GI50 [2] [µM],TGI [2] [µM],GI50 [3] [µM],TGI [3],GI50 [4] [µM],TGI [4] [µM],GI50 [5] [µM],TGI [5],GI50 [6] [µM],TGI [6] [µM],GI50 [7] [µM],TGI [7],GI50 [8] [µM],TGI [8],GI50 [9] [µM],TGI [9] [µM],GI50 [10] [µM],TGI [10]
CC(=O)OC1CCC2(C)C(=CCC3C4CC(CN5CC5)C(=O)C4(C)CCC32)C1 (configuration not stated),2.21,5.56,2.27,5.62,6.58,18.2 µM,0.67,2.68,3.17,13.3 µM,14,28.2,2.8,9.55 µM,3.11,11 µM,7.91,20.9,,
CC(C)=NO.CC(C)=NO.CC(C)=NO.CC(C)=NO.[Ti],> 100,> 100,> 100,> 100,> 100,> 100 µM,,,> 100,> 100 µM,> 100,> 100,> 100,> 100 µM,> 100,> 100 µM,> 100,> 100,> 100,> 100 µM
CCOC(=O)C1C(=O)C(=O)N2CCc3c([nH]c4ccccc34)C12 (configuration not stated),,> 100,,> 100,,,,,,> 100 µM,,> 100,,> 100 µM,,> 100 µM,,> 100,,> 100 µM
CN1C/C(=C\c2ccco2)c2nc(N)nc(-c3ccco3)c2C1,,> 100,,> 100,,> 100 µM,,,,> 100 µM,,> 100,,,,> 100 µM,,> 100,,> 100 µM
CC1=C2[C@@H](c3ccccc3)C3C=CC2(C=C3C(F)(F)F)N(C(=O)NC2CCCCC2)C1=O (some centres not stated),,> 100,,> 100,,> 100 µM,,,,> 100 µM,,,,> 100 µM,,> 100 µM,,> 100,,> 100 µM
NC1=NN(c2ccccc2)C(=O)C1/C(=N\NC(=O)c1cc2ccccc2cc1O)C(=O)Nc1ccc(Cl)cc1 (configuration not stated),,> 100,,> 100,,,,,,> 100 µM,,> 100,,> 100 µM,,> 100 µM,,> 100,,62.9 µM
OCCn1c(-c2ccncc2)c(-c2ccc(F)cc2)c2ncccc21,> 25,> 25,> 25,> 25,> 25,> 25 µM,> 25,> 25,> 25,> 25 µM,> 25,> 25,> 25,> 25 µM,> 25,> 25 µM,> 25,> 25,,
Cc1cc2c(=O)cc(-c3ccncc3)oc2c(C(=O)O)c1C,,> 100,,> 100,,> 100 µM,,,,> 100 µM,,> 100,,,,,,> 100,,> 100 µM
Nc1nc(N)c(-c2ccccc2)c(C(=O)Nc2nccs2)n1,,> 100,,> 100,,> 100 µM,,,,> 100 µM,,> 100,,> 100 µM,,> 100 µM,,> 100,,> 100 µM
O=C1NC2(CCCCC2)C2=C1CCCCC2,,> 100,,> 100,,> 100 µM,,,,> 100 µM,,> 100,,> 100 µM,,> 100 µM,,> 100,,> 100 µM
CN(C)c1ccc(/C=C2\Cc3ccccc3C2=O)cc1Br,,> 100,,> 100,,,,,,> 100 µM,,> 100,,> 100 µM,,> 100 µM,,> 100,,> 100 µM
O=[N+]([O-])C1(CO)COC(CCc2ccccc2)OC1 (configuration not stated),,> 100,,> 100,,> 100 µM,,,,> 100 µM,,> 100,,> 100 µM,,> 100 µM,,> 100,,> 100 µM
NC1CC(n2ccc(=O)[nH]c2=O)OC1C(O)CO (configuration not stated),,> 100,,> 100,,> 100 µM,,,,> 100 µM,,> 100,,> 100 µM,,> 100 µM,,> 100,,> 100 µM
Clc1ccc(N=CNc2ccc(-c3nc4ccccc4[nH]3)cc2)cc1,,,33.1,> 100,1.37,24.8 µM,,,> 100,> 100 µM,76.6,> 100,48.4,> 100 µM,0.691,18.5 µM,68.1,> 100,0.482,34.5 µM
CCCCCCCCCCCCCCCC(=O)NCC(OCC)OCC,,> 100,,> 100,,> 100 µM,,,,> 100 µM,,> 100,,> 100 µM,,> 100 µM,,> 100,,> 100 µM
CCOC(=O)/C(=C/c1ccc[nH]1)P(=O)(OCC)OCC,,> 100,,,,> 100 µM,,,,> 100 µM,,> 100,,> 100 µM,,> 100 µM,,> 100,,> 100 µM
O=[N+]([O-])c1cccc(C2=NOC3CCCC23)c1 (configuration not stated),,> 100,,> 100,,,,,,> 100 µM,,> 100,,> 100 µM,,> 100 µM,,> 100,,> 100 µM
Cn1nc(-c2ccccc2)c(C(=O)/C=C/c2ccccc2)c(N2CCCC2)c1=O,,,,72.5,,88.2 µM,,,,53.7 µM,,,,,,,,33.4,,53.5 µM
CS(=O)(=O)Nc1ccc(Nc2c3ccccc3nc3cc(Cl)ccc23)cc1,1.96,12.3,1.37,14.2,0.406,4.79 µM,0.389,13.4,0.686,15.4 µM,9.16,22.7,3.84,21.7 µM,3.81,18.5 µM,0.857,15.6,,
Brc1ccc2c(c1)-c1ccccc1C1=NCCN12,1.35,2.97,0.68,10.8,0.526,10.6 µM,0.552,10.9,0.44,10.4 µM,1.87,4.18,1.43,8.53 µM,1.02,11.3 µM,1.61,11.7,,
O=C1COc2cc3c(cc2N1)SCC(=O)N3,,> 100,,,,,,,,> 100 µM,,> 100,,> 100 µM,,> 100 µM,,> 100,,> 100 µM
Cc1nc(-c2cccnc2)sc1C(=O)/C=C/c1ccc(Cl)cc1Cl,,> 100,,> 100,,> 100 µM,,,,> 100 µM,,> 100,,,,> 100 µM,,> 100,,> 100 µM

SMILES,GI50 [1] [µM],TGI [1] [µM],GI50 [2] [µM],TGI [2] [µM],GI50 [3] [µM],TGI [3],GI50 [4] [µM],TGI [4] [µM],GI50 [5] [µM],TGI [5],GI50 [6] [µM],TGI [6] [µM],GI50 [7] [µM],TGI [7],GI50 [8] [µM],TGI [8],GI50 [9] [µM],TGI [9] [µM],GI50 [10] [µM],TGI [10]
COc1cc(/C=C/C(=O)c2c(-c3ccc(Cl)cc3)nc3sc(C)nn23)cc(OC)c1OC,25.6,> 100,15.8,> 100,18.4,> 100 µM,8.81,> 100,10.2,> 100 µM,,,31.8,> 100 µM,21.6,> 100 µM,51.2,> 100,,
Cc1c2cc[n+](C)cc2c(C)c2c1[nH]c1ccc(Oc3ccccc3)cc12,,,,> 100,2.96,11.3 µM and 50.1 µM,,,,> 37.9 µM and 40.6 µM,,,,36.5 µM and > 68.7 µM,,18.8 µM and > 100 µM,,> 64.3,,> 100 µM and 51.7 µM
CC1CC2C(=O)N(c3ccccc3)C(=O)C2c2[nH]c3ccccc3c21 (configuration not stated),,> 100,,> 100,,> 100 µM,,,,> 100 µM,,,,> 100 µM,,> 100 µM,,> 100,,> 100 µM
O=C(/C=C/c1ccc(OCC(=O)N2CCN(c3ccccc3)CC2)cc1)c1ccccc1,,> 58.2,,> 100,,10.7 µM,,,,> 28.4 µM,,> 60.4,,> 100 µM,,> 75 µM,,> 57.9,,98.9 µM
Nc1ccc2ncc(Nc3ccc(Cl)c(Cl)c3)nc2c1,,55.8,,> 100,,> 100 µM,,,,> 100 µM,,> 100,,> 100 µM,,> 100 µM,,> 100,,88.9 µM
CCOC(=O)c1c(/C=N\Nc2ccccc2)nc2ccccc2c1-c1ccccc1,,90.5,,> 100,,> 100 µM,,,,> 100 µM,,> 100,,> 100 µM,,> 100 µM,,> 100,,> 100 µM
O=C(Nc1cccc(C(F)(F)F)c1)Nc1ccc(OCc2nnc(-c3ccccc3)o2)c(F)c1,3.35,,2.92,54.3,4.58,25.6 µM,4.21,24.4,4.08,> 100 µM,7.16,25.8,4,30.1 µM,2.43,12.8 µM,6.18,22.4,,
CN(C)C(=O)c1cc2cnc(Nc3ccc(N4CCNCC4)cn3)nc2n1C1CCCC1,5.4,22.3,16.6,> 100,4.44,26.3 µM,0.592,37.2,1.21,66 µM,12.2,30.1,22.4,86.8 µM,2.85,32.9 µM,11.4,49.8,,
O=C(Nc1ccccc1)Oc1ccccc1C1CCCCC1,,57.1,,40.9,,26.8 µM,,,,72.5 µM,,,,37.3 µM,,> 100 µM,,53.2,,85.4 µM
CCCCc1c2c(nc3c1CC/C(=C\c1ccccc1)C3=O)CCCC2,,20.2,,12.3,,3.48 µM,,,,5.32 µM,,,,,,13.5 µM,,5.64,,24.9 µM
Cc1c(C(=O)C/C(=N/NC(=O)CC#N)C(N)=O)[n+](=O)c2ccccc2n1[O-],,> 100,,> 100,,> 100 µM,,,,34.5 µM,,> 100,,> 100 µM,,> 100 µM,,> 100,,> 100 µM
O=C(O)C12C3C4C1C1C2C3C41I (configuration not stated),,> 100,,> 100,,> 100 µM,,,,> 100 µM,,> 100,,> 100 µM,,> 100 µM,,> 100,,> 100 µM
CC1=CC(=O)N2[C@H](OC[C@@H]2C(C)C)O1,,> 100,,> 100,,,,,,> 100 µM,,> 100,,> 100 µM,,> 100 µM,,> 100,,
CCOC(=O)C1=C(O)c2c(OC)ccc(OC)c2C(=O)C1=O,,> 100,,> 100,,> 100 µM,,,,> 100 µM,,> 100,,> 100 µM,,> 100 µM,,> 100,,> 100 µM
CCNC(=O)O/N=C1/C=C2CC[C@@H]3C(CC[C@@]4(C)C3CC[C@@H]4OC(=O)NCC)[C@@]2(C)CC1 (some centres not stated),,,,11.2,,11.9 µM,,,,11.4 µM,,5.1,,6.39 µM,,9.58 µM,,10.7,,16.2 µM
CC(=O)OCC1OC(OC(C)=O)C(NC#N)C(OC(C)=O)C1OC(C)=O (configuration not stated),,> 100,,> 100,,> 100 µM,,,,> 100 µM,,> 100,,> 100 µM,,> 100 µM,,> 100,,
CCOC(=O)NC/C=C/CO,,> 100,,> 100,,,,,,> 100 µM,,> 100,,> 100 µM,,> 100 µM,,> 100,,
COc1cccc(OC)c1/C=N\N1C(=O)c2ccccc2C1=O,,> 100,,> 100,,> 100 µM,,,,> 100 µM,,> 100,,> 100 µM,,> 100 µM,,> 100,,> 100 µM
COC(=O)N/N=C(\c1nc2ccc(Cl)cc2[nH]c1=O)C(O)c1ccc([N+](=O)[O-])cc1 (configuration not stated),,> 100,,> 100,,> 100 µM,,,,> 100 µM,,,,> 100 µM,,> 100 µM,,> 100,,
COC(=O)CCSC(=O)Nc1ccccc1Cl,,,,> 100,,> 100 µM,,,,> 100 µM,,> 100,,> 100 µM,,> 100 µM,,> 100,,> 100 µM
CN1OC(CO)CC12C1CC3CC(C1)CC2C3 (configuration not stated),,> 100,,> 100,,> 100 µM,,,,> 100 µM,,> 100,,> 100 µM,,> 100 µM,,> 100,,
